Read-outs that look alike come from different tables or passages of the source. Marks after values point to notes of the source that are not given here.
Key:
Molm13 cells = test: Anti-AML activity, WST-1 viability (Example 72); assay type: cell-based; settings: Homo sapiens, Molm 13 cells, WST-1
Description: Dry powder of analogs were dissolved in DMSO. IPC-18 rat AML cells (Lacaze, N. et al. Leuk. Res. 1983, 7, 145.) were cultured in DMEM medium (Sigma-Aldrich, St. Louis, Mo., USA) supplemented with 10% horse serum (Invitrogen, Carlsbad, Calif., USA), and antibiotics (50 U/mL of penicillin and 0.05 mg/mL streptomycin). Molm13 (Matsuo, Y. et al. Leukemia 1997, 11, 1469.) cells were cultured in RPMI supplemented with antibiotics (50 U/mL of penicillin and 0.05 mg/mL streptomycin) and 10% fetal bovine serum (FBS, Invitrogen, Carlsbad, Calif.) and kept in exponential growth before the experiments. Dilution series of iodinin analogs were added to medium and cell suspension added to reach a final cell concentration of 150 000 cells/ml in 0.1 mL in a 96 well tissue culture plate. […] The cells were incubated with the iodinin analogs for 22 h before WST-1 was added according to the manufacturers protocol, and the cells incubated further in 2 h. Mitochondrial conversion of WST-1 to its colored metabolite was measured by a plate reader at 450 nm, with 620 nm as the reference wavelength. The cells were next fixed by adding 4% buffered formaldehyde (PBS, pH 7.4, supplemented with 0.01 mg/mL Hoechst 33342 for nuclear visualization) to the cell suspension at 1:1 (v/v) ratio (final concentration of formaldehyde:[…]). The cells' nuclear and surface morphology were examined microscopically and results compared with the WST-1 viability assay. The results given in Table I are based on WST-1 data.

[1] = test system: human acute myeloid leukemia cell line MOLM-13; test: Cytotoxicity, WST-1 and nuclear morphology (Example 73); assay type: cell-based
Description: (§1) All cell culturing media and serum were from Sigma-Aldrich (St. Louis, Mo., USA). Product Nos. are given in parentheses. The human acute myeloid leukemia cell line MOLM-13 was cultured in RPMI medium (R5886) enriched with […] (F7524) and 0.2 mM L-glutamine (G7513). The normal rat kidney epithelial (NRK) and the rat cardiomyoblast (H9c2) cells were cultured in DMEM medium (D6429) enriched with 10% fetal bovine serum (F7524). All cell lines were additionally supplemented with 100 IU/mL penicillin and […] (P0781). The cells were cultured in a humidified atmosphere either under 2% or 20% O2 at 37° C.
(§2) All analogues were dissolved in DMSO (D5879, Sigma-Aldrich) at concentrations between 2.5 and 20 mM before testing. For cytotoxic testing, the MOLM-13 cells were seeded as 20,000 cells/well, while NRK and H9c2 cells were seeded as 5,000 cells/well in 96-well Microplates (#167008, Thermo Scientific™ Nunc™ MicroWell™) with 100 μL medium/well. The cells were exposed to various concentrations of iodinin or its analogues for 24 hrs before the cell proliferation reagent WST-1 was used to assess the viability, in accordance with the manufacturer's instructions (11644807001, Roche Diagnostics, Sigma-Aldrich). The cells were next fixed in 2% buffered formaldehyde (pH 7.4) with the DNA-specific dye Hoechst 33342 (Polysciences Inc.) and assessed for cell death by UV-microscopy based on nuclear morphology. The highest concentration of analogue corresponded to 1% of DMSO, which alone gave less than 7% cell death as judged by nuclear morphology.
(§3) EC50 values were determined by analyses of WST-1 signal results as well as microscopic evaluation of cell death by four-parameter regression analyses using the SigmaPlot software (Systat Software inc. San Jose, Calif.):
(§4) [formula] where Y is the response (WST-1 signal or percent apoptosis), min and max are minimum and maximum response, X is concentration of analogue, EC50 equals the point of inflection, i.e. the point that gives half of maximum response, and h is the Hill's slope of the curve. The two methods gave consistent response curves for each analogue. In the case of Tirapazamine, where its colour interfered with the WST-1 signal, only microscopic evaluation of Hoechst stained cells was used in order to calculate its EC50 values.

[2] = test system: normal rat kidney epithelial (NRK) cells; test: as above; assay type: cell-based
Description: as §1, §2, §3, §4

[3] = test system: rat cardiomyoblast (H9c2) cells; test: as above; assay type: cell-based; settings: H9c2, 19% O2, 24 hours of incubation, read-out: EC50 (μM) H9c2 19% O2
Description: as §1, §2, §3, §4

[4] = Parallel artificial membrane permeability assay (PAMPA); settings: for LogPeff: PAMPA; for Permeability: PAMPA class by ranges of Bennion et al.
Description: The Corning Gentest™ pre-Coated parallel artificial membrane permeability assay PAMPA Plate System was from Cording Discovery Labware (Bedford, USA). The compounds were tested in room temperature at 50 μM using PBS as buffer. A total of 300 μl of the compound solution was added to each well of the donor plate, and 200 μl of PBS was added to the receiver filter plate. After incubation for five hours, 50 μl of the donor or acceptor well were injected into a reversed phase HPLC column (Kromasil 100-5 C18 150-4.6 mm, Akzo Nobel, Sweden) connected to a Merck-Hitachi LaChrome HPLC-system (VWR, WestChester, USA) with a L-7455 diode array detector. Mobile phase A was 0.05% aqueous TFA, and mobile phase B was acetonitrile. The flow rate was 1.6 ml/min and compounds eluted between 1 and 4.5 minutes was eluted during a 6.5 min gradient from 90:10% mobile phase A:B to 0:100% mobile phase A:B. The ratio of the compound concentrations in the donor and acceptor compartment was calculated after integration of the peaks at 285 nm. Peff was calculated as described in [Bennion B J, Be N A, McNerney M W, Lao V, Carlson E M, Valdez C A, et al. Predicting a Drug's Membrane Permeability: A Computational Model Validated With in Vitro Permeability Assay Data. The journal of physical chemistry B. 2017; 121(20):5228-37.]. Membrane permeability were classified by the range defined by Bennion et al., allowing for us to divide the compounds into four groups, compounds with high permeability (LogPeff>−5.33), intermediate permeability (LogPeff>−5.66 and <−5.33), low permeability (LogPeff>−6.14 and <−5.66) impermeable (LogPeff<−6.14).

[5] = 2% O2, 24 h of incubation, read-out: Molm 13 IC50 2% O2
[6] = 20% O2, 24 h of incubation, read-out: Molm 13 IC50 20% O2
[7] = Homo sapiens, MOLM-13, 2% O2, 24 hours of incubation, read-out: EC50 (μM) MOLM-13 2% O2
[8] = Homo sapiens, MOLM-13, 19% O2, 24 hours of incubation, read-out: EC50 (μM) MOLM-13 19% O2
[9] = Rattus norvegicus, 2% O2, 24 hours of incubation, read-out: EC50 (μM) NRK 2% O2
[10] = Rattus norvegicus, 19% O2, 24 hours of incubation, read-out: EC50 (μM) NRK 19% O2
[11] = 50 μM in PBS, room temperature, five hours
[12] = MOLM-13, 2% O2, 24 hours of incubation, read-out: EC50 (μM) MOLM-13 2% O2
[13] = MOLM-13, 19% O2, 24 hours of incubation, read-out: EC50 (μM) MOLM-13 19% O2
[14] = Rattus norvegicus, 24 h, read-out: EC50 (μM) NRK 2% O2, NRK, 2% O2, 24 hours of incubation

SMILES | IC50 (Molm13 cells; [5]) [µM] | IC50 (Molm13 cells; [6]) [µM] | EC50 [1, 7] [µM] | EC50 [1, 8] [µM] | EC50 [2, 9] [µM] | EC50 [2, 10] [µM] | EC50 ([3]; Rattus norvegicus) [µM] | LogPeff [4, 11] | other results
CCOC(=O)COc1cccc2c1[n+]([O-])c1cccc(OCC(=O)OCC)c1[n+]2[O-] [Example 16c, 1,6-bis(2-ethoxy-2-oxoethoxy)phenazine 5,10-dioxide] | 3.98 | 4.11 | 0.79 ± 0.06 | 2 ± 0.47 | > 20 | > 20 | > 20 |  | 
CC(C)(C)C(=O)Oc1cccc2c1[n+]([O-])c1cccc(OC(=O)C(C)(C)C)c1[n+]2[O-] [Example 16d, 1,6-bis(pivaloyloxy)phenazine 5,10-dioxide] | 5.59 | 4.05 | 8.9 ± 1.71 | 11 ± 0.7 |  |  | > 50 | −5.86* | 
CCOC(=O)Oc1cccc2c1[n+]([O-])c1cccc(OC(=O)OCC)c1[n+]2[O-] [Example 16e, 1,6-bis((ethoxycarbonyl)oxy)phenazine 5,10-dioxide] | 3.5 | 2.23 | 4 ± 0.33 | 6.1 ± 0.05 | > 25 | > 25 | > 25 |  | 
CCN(CC)C(=O)COc1cccc2c1[n+]([O-])c1cc(C)c(C)cc1[n+]2[O-] [Example 50, 1-(2-(diethylamino)-2-oxoethoxy)-7,8-dimethylphenazine 5,10-dioxide] |  |  | 3.4 ± 0.78 | 1.8 ± 0.24 | 52 ± 1.2 | 21 ± 0.3 | 41 ± 5.7 | −5.42 | Permeability [4]: Intermediate/high
Cc1cc2c(cc1C)[n+]([O-])c1c(OC(=O)N3CCCC3)cccc1[n+]2[O-] [Example 52, 7,8-dimethyl-1-((pyrrolidine-1-carbonyl)oxy)phenazine 5,10-dioxide] |  |  |  |  |  |  |  | −5.32 | EC50 [1, 12]: 0.78 ± 0.11 µM; EC50 [1, 13]: 1.5 ± 0.02 µM; EC50 [2, 14]: 8.9 µM; EC50 ([2]; Rattus norvegicus, 24 h, read-out: EC50 (μM) NRK 19% O2, NRK, 19% O2, 24 hours of incubation): 6.6 ± 0.04 µM; EC50 [3]: 8.7 ± 1.2 µM
[O-][n+]1c2cc3ccccc3cc2[n+]([O-])c2c(O)cccc21 [Example 70, 1-hydroxybenzo[b]phenazine 5,12-dioxide] |  |  |  |  |  |  |  | −8.04 | 
CN1CCN(C(=O)Oc2cccc3c2[n+]([O-])c2cc4ccccc4cc2[n+]3[O-])CC1 [Example 71, 1-((4-methylpiperazine-1-carbonyl)oxy)benzo[b]phenazine 5,12-dioxide] |  |  |  |  |  |  |  | −5.43 | Permeability [4]: Intermediate/high; EC50 [1, 12]: 1.8 ± 0.1 µM; EC50 [1, 13]: 2.8 ± 0.18 µM; EC50 [2, 14]: 7.5 ± 0.38 µM; EC50 ([2]; read-out: EC50 (μM) NRK 19% O2, 19% O2, 24 hours of incubation): 2 ± 0.06 µM; EC50 [3]: 2.3 ± 0.05 µM
Nc1n[n+]([O-])c2ccccc2[n+]1[O-] [Tirapazamine, reference compound] |  |  |  |  |  |  |  |  | LogPeff ([4]; 5 h, 50 μM): −5.79
